For data set [1] the following is noted: in vivo.
For data set [2] the following is noted: rats; cited from earlier work.

We go through two molecules from paper PMC7871333 (Science translational medicine, 2020).

With `Cn1c(=O)c2c(ncn2C)n(C)c1=O` [caffeine], the “Caffeine pharmacokinetic parameters sampled in plasma or ISF” value in data set [1] was “not significantly different”.
For `CC/N=c1\cc2oc3cc(NCC)c(C)cc3c(-c3ccccc3C(=O)OCC)c-2cc1C` [rhodamine 6G], the “Concentration in ISF compared to serum” value in data set [2] is “lower than in serum”.
